Values joined by “and” are separate entries in the source; they are usually repeats but may differ in a detail not shown here. Equal values may be shown once.
Test: molar heat capacity at constant pressure
Details: 101.33 kPa, Small (less than 1 g) adiabatic calorimetry

CCCCCCCC[n+]1ccn(C)c1.F[B-](F)(F)F [1-methyl-3-octylimidazolium tetrafluoroborate]
molar heat capacity at constant pressure
Details	Crystal	Glass
5 K	1.51 J/K/mol	1.78 J/K/mol
5.07 K	–	1.855 J/K/mol
5.13 K	1.622 J/K/mol	–
5.35 K	–	2.152 J/K/mol
5.41 K	1.892 J/K/mol	–
5.63 K	–	2.475 J/K/mol
5.69 K	2.194 J/K/mol	–
5.92 K	–	2.835 J/K/mol
5.98 K	2.524 J/K/mol	–
6.24 K	–	3.263 J/K/mol
6.3 K	2.928 J/K/mol	–
6.6 K	–	3.776 J/K/mol
6.66 K	3.407 J/K/mol	–
6.96 K	–	4.337 J/K/mol
7.03 K	3.928 J/K/mol	–
7.33 K	–	4.94 J/K/mol
7.4 K	4.511 J/K/mol	–
7.7 K	–	5.576 J/K/mol
7.78 K	5.114 J/K/mol	–
8.08 K	–	6.258 J/K/mol
8.15 K	5.768 J/K/mol	–
8.46 K	–	6.988 J/K/mol
8.54 K	6.47 J/K/mol	–
8.84 K	–	7.752 J/K/mol
8.92 K	7.205 J/K/mol	–
9.23 K	–	8.549 J/K/mol
9.31 K	7.974 J/K/mol	–
9.61 K	–	9.38 J/K/mol
9.7 K	8.786 J/K/mol	–
10 K	9.42 J/K/mol	10.23 J/K/mol and 10.24 J/K/mol
10.1 K	9.617 J/K/mol	–
10.5 K	–	11.4 J/K/mol
10.6 K	10.74 J/K/mol	–
11.11 K	–	12.83 J/K/mol
11.21 K	12.14 J/K/mol	–
11.73 K	–	14.33 J/K/mol
11.82 K	13.61 J/K/mol	–
12.34 K	–	15.89 J/K/mol
12.44 K	15.14 J/K/mol	–
12.96 K	–	17.5 J/K/mol
13.07 K	16.72 J/K/mol	–
13.58 K	–	19.15 J/K/mol
13.69 K	18.35 J/K/mol	–
14.2 K	–	20.8 J/K/mol
14.32 K	20 J/K/mol	–
14.83 K	–	22.52 J/K/mol
14.96 K	21.77 J/K/mol	–
15 K	21.91 J/K/mol	23.07 J/K/mol
15.57 K	–	24.74 J/K/mol
15.71 K	23.92 J/K/mol	–
16.43 K	–	27.33 J/K/mol
16.57 K	26.44 J/K/mol	–
17.29 K	–	29.78 J/K/mol
17.43 K	28.91 J/K/mol	–
18.15 K	–	32.35 J/K/mol
18.3 K	31.39 J/K/mol	–
19.01 K	–	34.88 J/K/mol
19.17 K	33.9 J/K/mol	–
19.88 K	–	37.39 J/K/mol
20 K	36.32 J/K/mol	37.79 J/K/mol
20.05 K	36.43 J/K/mol	–
21.09 K	–	41.05 J/K/mol
21.26 K	40.04 J/K/mol	–
22.65 K	–	45.73 J/K/mol
22.82 K	44.72 J/K/mol	–
24.21 K	–	50.47 J/K/mol
24.39 K	49.42 J/K/mol	–
25 K	51.22 J/K/mol	52.78 J/K/mol
25.78 K	–	55.12 J/K/mol
25.97 K	54.13 J/K/mol	–
27.35 K	–	59.68 J/K/mol
27.55 K	58.67 J/K/mol	–
28.87 K	–	64.05 J/K/mol
29.08 K	63.06 J/K/mol	–
30 K	65.66 J/K/mol	67.29 J/K/mol
30.42 K	–	68.44 J/K/mol
30.66 K	67.49 J/K/mol	–
32.16 K	–	73.29 J/K/mol
32.42 K	72.33 J/K/mol	–
34.07 K	–	78.36 J/K/mol
34.34 K	77.4 J/K/mol	–
35 K	79.1 J/K/mol	80.71 J/K/mol
35.98 K	–	83.21 J/K/mol
36.27 K	82.31 J/K/mol	–
37.9 K	–	87.91 J/K/mol
38.19 K	87.1 J/K/mol	–
39.82 K	–	92.51 J/K/mol
40 K	91.48 J/K/mol	92.99 J/K/mol
40.12 K	91.75 J/K/mol	–
41.83 K	–	97.3 J/K/mol
42.14 K	96.59 J/K/mol	–
43.94 K	–	102.2 J/K/mol
44.27 K	101.5 J/K/mol	–
45 K	103.2 J/K/mol	104.6 J/K/mol
46.06 K	–	107 J/K/mol
46.4 K	106.3 J/K/mol	–
48.18 K	–	111.7 J/K/mol
48.53 K	111 J/K/mol	–
50 K	114.1 J/K/mol	115.6 J/K/mol
50.3 K	–	116.2 J/K/mol
50.66 K	115.5 J/K/mol	–
52.42 K	–	120.6 J/K/mol
52.79 K	119.8 J/K/mol	–
54.54 K	–	124.8 J/K/mol
54.93 K	124 J/K/mol	–
56.66 K	–	128.7 J/K/mol
57.07 K	128 J/K/mol	–
58.79 K	–	132.7 J/K/mol
59.21 K	131.9 J/K/mol	–
60 K	133.3 J/K/mol	135 J/K/mol
60.93 K	–	136.6 J/K/mol
61.36 K	135.7 J/K/mol	–
63.07 K	–	140.4 J/K/mol
63.51 K	139.5 J/K/mol	–
65.21 K	–	144.2 J/K/mol
65.66 K	143 J/K/mol	–
67.34 K	–	147.9 J/K/mol
67.81 K	146.6 J/K/mol	–
69.48 K	–	151.6 J/K/mol
69.96 K	150.1 J/K/mol	–
70 K	150.1 J/K/mol	152.5 J/K/mol
71.72 K	–	155.5 J/K/mol
72.22 K	153.7 J/K/mol	–
74.07 K	–	159.5 J/K/mol
74.59 K	157.4 J/K/mol	–
76.42 K	–	163.4 J/K/mol
76.96 K	161 J/K/mol	–
78.77 K	–	167.3 J/K/mol
79.33 K	164.5 J/K/mol	–
79.7 K	165.1 J/K/mol	–
80 K	165.4 J/K/mol	169.5 J/K/mol
80.09 K	165.7 J/K/mol	–
80.17 K	–	169.7 J/K/mol
81.13 K	–	171.2 J/K/mol
81.61 K	167.8 J/K/mol	–
81.71 K	167.9 J/K/mol	–
81.87 K	168.2 J/K/mol	–
81.93 K	–	172.6 J/K/mol
83.39 K	170.3 J/K/mol	–
83.49 K	–	175 J/K/mol
83.65 K	170.6 J/K/mol	–
83.69 K	–	175.5 J/K/mol
84.09 K	171.2 J/K/mol	–
85.19 K	172.7 J/K/mol	–
85.45 K	173.2 J/K/mol	–
85.46 K	–	178.2 J/K/mol
87 K	175.2 J/K/mol	–
87.24 K	–	181 J/K/mol
87.26 K	175.7 J/K/mol	–
88.81 K	177.8 J/K/mol	–
89.03 K	–	183.9 J/K/mol
89.08 K	178.2 J/K/mol	–
90 K	179.5 J/K/mol	185.3 J/K/mol
90.64 K	180.3 J/K/mol	–
90.83 K	–	186.6 J/K/mol
90.9 K	180.7 J/K/mol	–
92.07 K	–	188.5 J/K/mol
92.47 K	182.7 J/K/mol	–
92.64 K	–	189.3 J/K/mol
92.74 K	183.1 J/K/mol	–
93.91 K	–	191.2 J/K/mol
94.31 K	185.2 J/K/mol	–
94.58 K	185.6 J/K/mol	–
95.76 K	–	193.9 J/K/mol
96.17 K	187.6 J/K/mol	–
96.43 K	187.9 J/K/mol	–
97.6 K	–	196.8 J/K/mol
98.02 K	190.1 J/K/mol	–
98.29 K	190.4 J/K/mol	–
99.45 K	–	199.4 J/K/mol
99.89 K	192.4 J/K/mol	–
100 K	192.5 J/K/mol	200.2 J/K/mol
100.16 K	192.7 J/K/mol	–
101.31 K	–	202.1 J/K/mol
101.76 K	194.8 J/K/mol	–
102.03 K	195.1 J/K/mol	–
103.16 K	–	204.8 J/K/mol
103.64 K	197.2 J/K/mol	–
103.91 K	197.5 J/K/mol	–
105.01 K	–	207.5 J/K/mol
105.53 K	199.4 J/K/mol	–
105.8 K	199.8 J/K/mol	–
106.87 K	–	210.2 J/K/mol
107.42 K	201.7 J/K/mol	–
107.69 K	202.1 J/K/mol	–
108.73 K	–	212.9 J/K/mol
109.32 K	204.1 J/K/mol	–
109.58 K	204.4 J/K/mol	–
110 K	204.9 J/K/mol	214.7 J/K/mol
110.6 K	–	215.5 J/K/mol
111.22 K	206.4 J/K/mol	–
111.49 K	206.7 J/K/mol	–
112.46 K	–	218.2 J/K/mol
113.12 K	208.7 J/K/mol	–
113.39 K	209 J/K/mol	–
114.33 K	–	220.8 J/K/mol
115.03 K	210.9 J/K/mol	–
115.3 K	211.2 J/K/mol	–
116.2 K	–	223.4 J/K/mol
116.94 K	213.1 J/K/mol	–
117.21 K	213.4 J/K/mol	–
118.07 K	–	226.1 J/K/mol
118.86 K	215.4 J/K/mol	–
119.13 K	215.7 J/K/mol	–
119.94 K	–	228.8 J/K/mol
120 K	216.7 J/K/mol	229 J/K/mol
120.78 K	217.6 J/K/mol	–
121.05 K	218 J/K/mol	–
121.81 K	–	231.5 J/K/mol
122.7 K	219.9 J/K/mol	–
122.97 K	220.2 J/K/mol	–
123.69 K	–	234.2 J/K/mol
124.63 K	222.1 J/K/mol	–
124.9 K	222.4 J/K/mol	–
125.57 K	–	237 J/K/mol
126.55 K	224.3 J/K/mol	–
126.83 K	224.6 J/K/mol	–
127.44 K	–	239.7 J/K/mol
128.49 K	226.5 J/K/mol	–
128.76 K	226.8 J/K/mol	–
129.32 K	–	242.4 J/K/mol
130 K	228.2 J/K/mol	243.4 J/K/mol
130.42 K	228.7 J/K/mol	–
130.69 K	229 J/K/mol	–
131.2 K	–	245.1 J/K/mol
132.35 K	230.9 J/K/mol	–
132.62 K	231.1 J/K/mol	–
133.08 K	–	248 J/K/mol
134.29 K	233.1 J/K/mol	–
134.56 K	233.4 J/K/mol	–
134.97 K	–	250.8 J/K/mol
136.23 K	235.3 J/K/mol	–
136.5 K	235.6 J/K/mol	–
136.86 K	–	253.6 J/K/mol
138.16 K	237.5 J/K/mol	–
138.44 K	237.8 J/K/mol	–
138.74 K	–	256.4 J/K/mol
140 K	239.7 J/K/mol	258.2 J/K/mol
140.11 K	239.7 J/K/mol	–
140.38 K	240 J/K/mol	–
140.63 K	–	259.2 J/K/mol
142.05 K	242 J/K/mol	–
142.32 K	242.3 J/K/mol	–
142.52 K	–	262 J/K/mol
143.99 K	244.3 J/K/mol	–
144.26 K	244.6 J/K/mol	–
144.42 K	–	264.9 J/K/mol
145.93 K	246.5 J/K/mol	–
146.2 K	246.8 J/K/mol	–
146.31 K	–	267.8 J/K/mol
147.87 K	248.8 J/K/mol	–
148.14 K	249 J/K/mol	–

Source: the NIST ThermoML archive (doi:10.1016/j.tca.2015.01.022)
